By IC50 is commonly meant the point on the concentration scale where inhibition reaches its midpoint.

One test has as its target T1, Aurora B (Homo sapiens, UniProt Q96GD4).
T1 construct: cell lysates from Jurkat cells (ATCC TIB-152) used; endogenous in cells; host or cells: Jurkat cells (ATCC TIB-152), treated with pervanadate
The test can be described thus: Kinobeads assay, Aurora B. In kind it is binding. The conditions noted are these: for IC50: lysate of pervanadate-treated Jurkat cells, read-out: Inhibition values (IC50) Aur B.

The next test concerns the target T2, Aurora A (Homo sapiens, UniProt O14965).
T2 construct: cell lysates from Jurkat cells (ATCC TIB-152) used; endogenous in cells; host or cells: Jurkat cells (ATCC TIB-152), treated with pervanadate
T2 sequence (O14965 1-403): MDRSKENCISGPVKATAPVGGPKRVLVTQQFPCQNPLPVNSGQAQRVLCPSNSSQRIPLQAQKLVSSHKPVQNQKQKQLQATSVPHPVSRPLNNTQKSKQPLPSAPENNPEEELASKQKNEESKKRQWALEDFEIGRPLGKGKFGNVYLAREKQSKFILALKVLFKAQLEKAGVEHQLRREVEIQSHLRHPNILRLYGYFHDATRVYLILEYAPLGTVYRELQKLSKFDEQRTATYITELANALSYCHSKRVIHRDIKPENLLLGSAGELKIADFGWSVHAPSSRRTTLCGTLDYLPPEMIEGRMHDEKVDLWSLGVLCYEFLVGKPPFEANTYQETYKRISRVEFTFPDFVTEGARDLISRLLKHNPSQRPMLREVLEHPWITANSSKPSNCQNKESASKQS
The test is described as follows: Kinobeads assay, Aurora A. Type of test: binding. Particulars: for IC50: lysate of pervanadate-treated Jurkat cells, read-out: Inhibition values (IC50) Aur A.

T1 sequence (Q96GD4 whole entry): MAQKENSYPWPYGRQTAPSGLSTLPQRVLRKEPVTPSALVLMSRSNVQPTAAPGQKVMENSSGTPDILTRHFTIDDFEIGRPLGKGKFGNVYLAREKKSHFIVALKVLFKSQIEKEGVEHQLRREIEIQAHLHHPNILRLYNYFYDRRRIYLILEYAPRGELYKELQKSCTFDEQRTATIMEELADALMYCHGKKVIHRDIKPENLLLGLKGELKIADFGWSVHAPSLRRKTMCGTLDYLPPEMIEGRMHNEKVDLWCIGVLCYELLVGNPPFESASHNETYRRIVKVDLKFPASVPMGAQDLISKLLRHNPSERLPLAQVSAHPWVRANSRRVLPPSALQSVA

Turning to `O=C1COCCN1c1cc(F)cc(Cn2ncc3cnc(Nc4cnn(C5CCNCC5)c4)nc32)c1` [Example 102, 4-(3-fluoro-5-((6-((1-(piperidin-4-yl)-1H-pyrazol-4-yl)amino)-1H-pyrazolo[3,4-d]pyrimidin-1-yl)methyl)phenyl)morpholin-3-one], on Aurora B, the “JAK3/AurB Fold Selectivity” value is 10-50 Fold and the 50% inhibitory concentration (IC50) was in the range of 100 to 1000 nM. Also, on Aurora A, the “JAK3/AurA Fold Selectivity” value is 10-50 Fold and the IC50 is < 100 nM.
In the case of `C[C@H]1COCCN1c1cccc(Cn2ncc3cnc(Nc4cnn(C)c4)nc32)c1` [Example 112, (S)-N-(1-methyl-1H-pyrazol-4-yl)-1-(3-(3-methylmorpholino)benzyl)-1H-pyrazolo[3,4-d]pyrimidin-6-amine], on Aurora B, the “JAK3/AurB Fold Selectivity” value is listed as >50 Fold and the 50% inhibitory concentration (IC50) is 1000 to 10000 nM. At Aurora A, the “JAK3/AurA Fold Selectivity” value is recorded as 10-50 Fold and the IC50 lay in the range of 100 to 1000 nM.
Taken in the same sequence, the figures for `O=C1COCCN1c1cc(F)cc(Cn2ncc3cnc(Nc4cnn(CCS(=O)(=O)NC5CC5)c4)nc32)c1` [Example 106, N-cyclopropyl-2-(4-((1-(3-fluoro-5-(3-oxomorpholino)benzyl)-1H-pyrazolo[3,4-d]pyrimidin-6-yl)amino)-1H-pyrazol-1-yl)ethanesulfonamide] were 10-50 Fold, 100 to 1000 nM, 10-50 Fold and 100 to 1000 nM.
For `C[C@@H]1COCCN1c1cccc(Cn2ncc3cnc(Nc4cnn(C)c4)nc32)n1` [Example 1, (R)—N-(1-Methyl-1H-pyrazol-4-yl)-1-((6-(3-methylmorpholino)pyridin-2-yl)methyl)-1H-pyrazolo[3,4-d]pyrimidin-6-amine] the same measures were 10-50 Fold, 1000 to 10000 nM, 3-10 Fold and 100 to 1000 nM.
On to `CN(C)CC1(Cn2cc(Nc3ncc4cnn(Cc5cccc(N6CCOCC6)c5)c4n3)cn2)COC1` [Example 31, N-(1-((3-((Dimethylamino)methyl)oxetan-3-yl)methyl)-1H-pyrazol-4-yl)-1-(3-morpholinobenzyl)-1H-pyrazolo[3,4-d]pyrimidin-6-amine], for which, on Aurora B, the “JAK3/AurB Fold Selectivity” value is >50 Fold and the IC50 lay in the range of 1000 to 10000 nM. Further, on Aurora A, the “JAK3/AurA Fold Selectivity” value is recorded as 3-10 Fold and the 50% inhibitory concentration (IC50) is 100 to 1000 nM.
Taken in the same sequence, the figures for `NCCCn1cc(Nc2ncc3cnn(Cc4cccc(N5CCOCC5)c4)c3n2)cn1` [Example 34, N-(1-(3-Aminopropyl)-1H-pyrazol-4-yl)-1-(3-morpholinobenzyl)-1H-pyrazolo[3,4-d]pyrimidin-6-amine] were >50 Fold, 1000 to 10000 nM, 10-50 Fold and 100 to 1000 nM.
Taken in the same sequence, the figures for `O=C1COCCN1c1cccc(Cn2ncc3cnc(Nc4cnn(CCO)c4)nc32)c1` [Example 29, 4-(3-((6-((1-(2-Hydroxyethyl)-1H-pyrazol-4-yl)amino)-1H-pyrazolo[3,4-d]pyrimidin-1-yl)methyl)phenyl)morpholin-3-one] were 10-50 Fold, 100 to 1000 nM, 3-10 Fold and 100 to 1000 nM.
Consider `Cn1cc(Nc2ncc3cnn(Cc4cccc(N5CC6(COC6)C5)c4F)c3n2)cn1` [Example 91, 1-(2-fluoro-3-(2-oxa-6-azaspiro[3.3]heptan-6-yl)benzyl)-N-(1-methyl-1H-pyrazol-4-yl)-1H-pyrazolo[3,4-d]pyrimidin-6-amine], for which, at Aurora B, the “JAK3/AurB Fold Selectivity” value is listed as >50 Fold and the 50% inhibitory concentration (IC50) lay in the range of 1000 to 10000 nM. Moreover, the concentration for half-maximal inhibition (IC50) at Aurora A was ≥ 10000 nM.
With `Cn1cc(Nc2ncc3cnn(Cc4cc(F)cc(-c5cnn(C)c5)c4)c3n2)cn1` [Example 125, 1-(3-fluoro-5-(1-methyl-1H-pyrazol-4-yl)benzyl)-N-(1-methyl-1H-pyrazol-4-yl)-1H-pyrazolo[3,4-d]pyrimidin-6-amine], at Aurora B, the “JAK3/AurB Fold Selectivity” value is >50 Fold and the IC50 was 1000 to 10000 nM. In addition, on Aurora A, the “JAK3/AurA Fold Selectivity” value was 10-50 Fold and the IC50 was in the range of 1000 to 10000 nM.
In the case of `CNC(=O)CCn1cc(Nc2ncc3cnn(Cc4cccc(N5CCOCC5)c4)c3n2)cn1` [Example 24, N-Methyl-3-(4-((1-(3-morpholinobenzyl)-1H-pyrazolo[3,4-d]pyrimidin-6-yl)amino)-1H-pyrazol-1-yl)propanamide], on Aurora B, the “JAK3/AurB Fold Selectivity” value is given as >50 Fold and the IC50 fell in the range of 1000 to 10000 nM. Also, on Aurora A, the “JAK3/AurA Fold Selectivity” value is listed as 10-50 Fold and the IC50 lay within 100 to 1000 nM.
Taken in the same sequence, the figures for `Cn1cc(Nc2ncc3cnn(Cc4cccc(-c5cn[nH]c5)c4)c3n2)cn1` [Example 118, 1-(3-(1H-pyrazol-4-yl)benzyl)-N-(1-methyl-1H-pyrazol-4-yl)-1H-pyrazolo[3,4-d]pyrimidin-6-amine] were 10-50 Fold, 1000 to 10000 nM, 10-50 Fold and 1000 to 10000 nM.
Taken in the same sequence, the figures for `O=C1COCCN1c1cc(F)cc(Cn2ncc3cnc(Nc4cnn(CC5CCNC5)c4)nc32)c1` (stereo not shown) [Example 101, 4-(3-fluoro-5-((6-((1-(pyrrolidin-3-ylmethyl)-1H-pyrazol-4-yl)amino)-1H-pyrazolo[3,4-d]pyrimidin-1-yl)methyl)phenyl)morpholin-3-one] were 10-50 Fold, 100 to 1000 nM, 10-50 Fold and < 100 nM.
Turning to `Cn1cc(Nc2ncc3cnn(Cc4cccc(N5CC6CCC(C5)O6)c4)c3n2)cn1` [Example 26], at Aurora B, the “JAK3/AurB Fold Selectivity” value is listed as 10-50 Fold and the IC50 was 1000 to 10000 nM. Besides, on Aurora A, the “JAK3/AurA Fold Selectivity” value is reported as 3-10 Fold and the IC50 was 100 to 1000 nM.
Consider `CCCn1cc(-c2cccc(Cn3ncc4cnc(Nc5cnn(C)c5)nc43)c2)cn1` [Example 119, N-(1-methyl-1H-pyrazol-4-yl)-1-(3-(1-propyl-1H-pyrazol-4-yl)benzyl)-1H-pyrazolo[3,4-d]pyrimidin-6-amine], for which, on Aurora B, the “JAK3/AurB Fold Selectivity” value is listed as >50 Fold and the IC50 is 1000 to 10000 nM. In addition, at Aurora A, the “JAK3/AurA Fold Selectivity” value is on record as 10-50 Fold and the half-maximal inhibitory concentration (IC50) fell in the range of 1000 to 10000 nM.
Regarding `Cc1c(Cn2ncc3cnc(Nc4cnn(C)c4)nc32)cccc1N1CCOCC1` [Example 11, N-(1-Methyl-1H-pyrazol-4-yl)-1-(2-methyl-3-morpholinobenzyl)-1H-pyrazolo[3,4-d]pyrimidin-6-amine], on Aurora B, the “JAK3/AurB Fold Selectivity” value was 10-50 Fold and the IC50 lay within 100 to 1000 nM. On Aurora A, the “JAK3/AurA Fold Selectivity” value is reported as 10-50 Fold and the concentration for half-maximal inhibition (IC50) lay in the range of 100 to 1000 nM.
`Cn1cc(Nc2ncc3cnn(Cc4cc(-c5cnn(C)c5)cc(F)c4F)c3n2)cn1` [Example 126, 1-(2,3-difluoro-5-(1-methyl-1H-pyrazol-4-yl)benzyl)-N-(1-methyl-1H-pyrazol-4-yl)-1H-pyrazolo[3,4-d]pyrimidin-6-amine]: at Aurora B, the “JAK3/AurB Fold Selectivity” value is >50 Fold and the IC50 was ≥ 10000 nM. Besides, on Aurora A, the “JAK3/AurA Fold Selectivity” value was >50 Fold and the IC50 was 1000 to 10000 nM.
As for `Cn1cc(Nc2ncc3cnn(Cc4cccc(N5CCOCC5=O)c4)c3n2)cn1` [Example 27, 4-(3-((6-((1-Methyl-1H-pyrazol-4-yl)amino)-1H-pyrazolo[3,4-d]pyrimidin-1-yl)methyl)phenyl)morpholin-3-one], on Aurora B, the “JAK3/AurB Fold Selectivity” value is reported as 10-50 Fold and the IC50 was in the range of 100 to 1000 nM. On Aurora A, the “JAK3/AurA Fold Selectivity” value was 10-50 Fold and the IC50 lay within 100 to 1000 nM.
As for `Cn1cc(Nc2ncc3cnn(Cc4c(F)c(F)cc(C(=O)N5CCOCC5)c4F)c3n2)cn1` [Example 110, morpholino(2,4,5-trifluoro-3-((6-((1-methyl-1H-pyrazol-4-yl)amino)-1H-pyrazolo[3,4-d]pyrimidin-1-yl)methyl)phenyl)methanone], at Aurora B, the “JAK3/AurB Fold Selectivity” value was 3-10 Fold and the IC50 was in the range of 100 to 1000 nM. For the same compound, on Aurora A, the “JAK3/AurA Fold Selectivity” value is reported as >50 Fold and the IC50 is 1000 to 10000 nM.
For `CN(C)CCCn1cc(Nc2ncc3cnn(Cc4cccc(N5CCOCC5)c4)c3n2)cn1` [Example 4, N-(1-(3-(Dimethylamino)propyl)-1H-pyrazol-4-yl)-1-(3-morpholinobenzyl)-1H-pyrazolo[3,4-d]pyrimidin-6-amine], on Aurora B, the “JAK3/AurB Fold Selectivity” value is >50 Fold and the IC50 lay in the range of 100 to 1000 nM. Moreover, on Aurora A, the “JAK3/AurA Fold Selectivity” value was >50 Fold and the concentration for half-maximal inhibition (IC50) was in the range of 1000 to 10000 nM.
Regarding `Cn1cc(Nc2ncc3cnn(Cc4cccc(-c5cnn(C)c5)c4)c3n2)cn1` [Example 115, N-(1-methyl-1H-pyrazol-4-yl)-1-(3-(1-methyl-1H-pyrazol-4-yl)benzyl)-1H-pyrazolo[3,4-d]pyrimidin-6-amine], at Aurora B, the “JAK3/AurB Fold Selectivity” value is >50 Fold and the IC50 fell in the range of 1000 to 10000 nM. Further, on Aurora A, the “JAK3/AurA Fold Selectivity” value is on record as 10-50 Fold and the IC50 was in the range of 100 to 1000 nM.
